Consider 3 molecules from ChEMBL document CHEMBL1153185, “Two novel neo-clerodane diterpenoids from Scutellaria barbata” (Bioorg Med Chem Lett, 2010).

Each structure is given as a SMILES string. Structures can show the parent of a compound that is named as a salt. Calls of active or inactive are those of the source. The rule behind the calls is not given here.

Format in all cases: functional, cell-based
In test [1] the test system is HL-60. In words: Cytotoxicity against human HL60 cells by MTT assay.
The test system of test [2] is Lewis lung carcinoma. In words: Cytotoxicity against mouse LLC by MTT assay. (In general: Tetrazolium assays rely on reduction of a dye to a coloured formazan, in cell work by metabolically active cells.)
Test [3] has as its system MCF7. In words: Cytotoxicity against human MCF7 cells by MTT assay.

Take `C[C@@]12[C@@H](OC(=O)c3cccnc3)[C@H](OC(=O)c3ccccc3)[C@](C)(O)[C@](C)(/C=C/C3=CC(=O)OC3)[C@H]1CC=C[C@]2(C)O`: the result in test [1], in test [2] and in test [3] was inactive.

In the case of `COc1cccc2c1C(=O)c1c(O)c3c(c(O)c1C2=O)C[C@@](O)(C(=O)CO)C[C@@H]3O[C@H]1C[C@H](N)[C@H](O)[C@H](C)O1` [DOXORUBICIN HYDROCHLORIDE], the IC50 in test [1] was found to be 0.18 µM.

`CC(=O)O[C@@H](CC1=CC(=O)OC1)[C@]1(C)[C@H]2CCC=C(C)[C@]2(C)[C@@H](OC(=O)c2cccnc2)[C@H](OC(=O)c2ccccc2)[C@]1(C)O` [BARBATELLARINES B]: in test [1], the IC50 was determined as 41.4 µM. Compared with the last molecule, the IC50 is about 230-fold higher.

For orientation: IC50 means the concentration needed to halve the response being measured. Low values mean greater potency in that assay, high ones weaker potency in that assay.
